In patent publication US8563714B2, “Bridged spiro [2.4] heptane derivatives as ALX receptor and/or FPRL2 agonists” (Actelion Pharmaceuticals Ltd., priority 2009, dated 2013):

Legend:
[1] = target: T1, human ALX receptor (Homo sapiens, UniProt P25090); experiment: Intracellular calcium measurements (FLIPR), agonistic activity in HEK293-hALXR-Gα16 cells; assay type: cell-based; details: Fluo-4 calcium FLIPR, normalized to WKYMVm 10 nM
T1 construct: expressed in transfected cells; host or cells: HEK293 (HEK293-hALXR-Gα16)
T1 sequence (P25090 1-351): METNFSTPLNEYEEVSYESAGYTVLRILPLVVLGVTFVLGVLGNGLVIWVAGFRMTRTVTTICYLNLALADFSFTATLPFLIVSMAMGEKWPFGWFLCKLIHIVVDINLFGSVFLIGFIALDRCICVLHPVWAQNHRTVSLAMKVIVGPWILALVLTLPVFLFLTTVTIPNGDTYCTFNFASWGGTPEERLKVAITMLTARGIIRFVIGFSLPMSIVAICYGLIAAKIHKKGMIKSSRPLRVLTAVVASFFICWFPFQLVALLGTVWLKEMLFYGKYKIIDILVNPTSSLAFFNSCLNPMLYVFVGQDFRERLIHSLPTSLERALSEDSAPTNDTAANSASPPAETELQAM
How it was run: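 Agonist-induced calcium flux was recorded by FLIPR (488/540 nm) in HEK293-hALXR-Gα16 cells pre-loaded with Fluo-4 AM (1 μM, 60 min, 37°C). Peak signal above baseline, after subtracting buffer addition, was expressed relative to WKYMVm at 10 nM final.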

[2] = target: T2, human FPRL2 (Homo sapiens, UniProt P25089); experiment: Intracellular calcium measurements (FLIPR), agonistic activity in HEK293-hFPRL2-Gα16 cells; assay type: cell-based; details: Fluo-4 calcium FLIPR, normalized to GLY14-Humanin 100 nM
T2 construct: expressed in transfected cells; host or cells: HEK293 (HEK293-hFPRL2-Gα16)
T2 sequence (P25089 1-353): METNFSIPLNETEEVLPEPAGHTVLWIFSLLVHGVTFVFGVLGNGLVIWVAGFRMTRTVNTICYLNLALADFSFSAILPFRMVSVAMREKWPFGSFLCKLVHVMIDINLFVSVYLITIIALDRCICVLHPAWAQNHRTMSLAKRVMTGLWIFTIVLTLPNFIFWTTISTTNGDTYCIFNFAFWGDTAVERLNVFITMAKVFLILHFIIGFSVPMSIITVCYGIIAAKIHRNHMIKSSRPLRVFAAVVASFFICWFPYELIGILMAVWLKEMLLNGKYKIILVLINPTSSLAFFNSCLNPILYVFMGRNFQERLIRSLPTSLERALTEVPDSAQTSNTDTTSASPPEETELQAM
How it was run: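 Peak values after baseline subtraction are expressed relative to 100 nM Gly14-Humanin; compounds diluted in assay buffer from 10 mM DMSO stocks.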

| Compound | EC50 [1] | EC50 [2] |
| --- | --- | --- |
| O=C(NCCCCN1CCCC1)[C@H]1[C@H](C(=O)Nc2ccc3ncoc3c2)[C@@H]2C=C[C@H]1C21CC1 (racemic) [Example 254, (5R*)—N^5-(Benzo[d]oxazol-6-yl)-(6R*)—N^6-(4-pyrrolidin-1-yl-butyl)-(4S*,7R*)-[4,7-ethenylene-spiro[2.4]heptane]-5,6-dicarboxamide] | 492 nM | 67 nM |
| Cc1cc(CNC(=O)[C@H]2[C@H](C(=O)NCCCCN3CCCC3)[C@H]3C=C[C@@H]2C32CC2)no1 (racemic) [Example 255, (5R*)—N^5-(5-Methyl-isoxazol-3-yl-methyl)-(6R*)—N^6-(4-pyrrolidin-1-yl-butyl)-(4S*,7R*)-[4,7-ethenylene-spiro[2.4]heptane]-5,6-dicarboxamide] | 40 nM | 489 nM |
| O=C(NCCCCN1CCCC1)[C@H]1[C@H](C(=O)Nc2nnc(C(F)(F)F)s2)[C@@H]2C=C[C@H]1C21CC1 (racemic) [Example 257, (5R*)—N^5-(5-Trifluoromethyl-1,3,4-thiadiazol-2-yl)-(6R*)—N^6-(4-pyrrolidin-1-yl-butyl)-(4S*,7R*)-[4,7-ethenylene-spiro[2.4]heptane]-5,6-dicarboxamide] | 6010 nM | 167 nM |
| O=C(NCCN1CCNC1=O)[C@H]1[C@H](C(=O)Nc2ncc(Br)s2)[C@@H]2C=C[C@H]1C21CC1 (racemic) [Example 260, (5R*)—N^5-(5-Bromo-thiazol-2-yl)-(6R*)—N^6-((2-imidazolidin-2-on)-1-yl-ethyl)-(4S*,7R*)-[4,7-ethenylene-spiro[2.4]heptane]-5,6-dicarboxamide] | 9.1 nM | 8730 nM |
| CCOCCCNC(=O)[C@H]1[C@H](C(=O)NCc2ccc(Br)cc2)[C@@H]2C=C[C@H]1C21CC1 (racemic) [Example 263, (5R*)—N^5-(4-Bromophenyl-methyl)-(6R*)—N^6-(3-ethoxy-propyl)-(4S*,7R*)-[4,7-ethenylene-spiro[2.4]heptane]-5,6-dicarboxamide] | 899 nM | 4460 nM |
| CC(=O)c1csc(CNC(=O)[C@H]2[C@H](C(=O)NCCCN3CCCC3)[C@H]3C=C[C@@H]2C32CC2)n1 (racemic) [Example 264, (5R*)—N^5-(4-Acetyl-thiazol-2-yl-methyl)-(6R*)—N^6-(3-pyrrolidino-propyl)-(4S*,7R*)-[4,7-ethenylene-spiro[2.4]heptane]-5,6-dicarboxamide] | 140 nM | 835 nM |
| CN1CCN(CCCNC(=O)[C@H]2[C@H](C(=O)Nc3ncc(Br)s3)[C@@H]3C=C[C@H]2C32CC2)CC1 (racemic) [Example 265, (5R*)—N^5-(5-Bromothiazol-2-yl)-(6R*)—N^6-(3-(4-methylpiperazin-1-yl)-propyl)-(4S*,7R*)-[4,7-ethenylene-spiro[2.4]heptane]-5,6-dicarboxamide] | 49 nM | 462 nM |
| CC(=O)c1csc(CNC(=O)[C@H]2[C@H](C(=O)NCCN(C)C)[C@H]3C=C[C@@H]2C32CC2)n1 (racemic) [Example 266, (5R*)—N^5-(4-Acetyl-thiazol-2-yl-methyl)-(6R*)—N^6-(2-dimethylamino-ethyl)-(4S*,7R*)-[4,7-ethenylene-spiro[2.4]heptane]-5,6-dicarboxamide] | 65 nM | 1210 nM |
| CC(=O)c1csc(CNC(=O)[C@H]2[C@H](C(=O)NCCCN(C)C)[C@H]3C=C[C@@H]2C32CC2)n1 (racemic) [Example 267, (5R*)—N^5-(4-Acetyl-thiazol-2-yl-methyl)-(6R*)—N^6-(3-dimethylamino-propyl)-(4S*,7R*)-[4,7-ethenylene-spiro[2.4]heptane]-5,6-dicarboxamide] | 288 nM | 15300 nM |
| CC(=O)c1csc(CNC(=O)[C@H]2[C@H](C(=O)NCCN3CCNC3=O)[C@H]3C=C[C@@H]2C32CC2)n1 (racemic) [Example 269, (5R*)—N^5-(4-Acetyl-thiazol-2-yl-methyl)-(6R*)—N^6-((2-imidazolidin-2-on)-1-yl-ethyl)-(4S*,7R*)-[4,7-ethenylene-spiro[2.4]heptane]-5,6-dicarboxamide] | 82 nM | 3550 nM |
| CCN(CC)CCCCNC(=O)[C@H]1[C@H](C(=O)Nc2ncc(Br)s2)[C@@H]2C=C[C@H]1C21CC1 (racemic) [Example 270, (5R*)—N^5-(5-Bromothiazol-2-yl)-(6R*)—N^6-(4-diethylamino-butyl)-(4S*,7R*)-[4,7-ethenylene-spiro[2.4]heptane]-5,6-dicarboxamide] | 54 nM | 396 nM |
| O=C(NCCF)[C@H]1[C@H](C(=O)NCc2ccc(Br)cc2)[C@@H]2C=C[C@H]1C21CC1 (racemic) [Example 271, (5R*)—N^5-(4-Bromophenyl-methyl)-(6R*)—N^6-(2-fluoroethyl)-(4S*,7R*)-[4,7-ethenylene-spiro[2.4]heptane]-5,6-dicarboxamide] | 673 nM | > 25000 nM |
| CN1CCN(CCCNC(=O)[C@H]2[C@H](C(=O)NCc3ccc(Br)cc3)[C@@H]3C=C[C@H]2C32CC2)CC1 (racemic) [Example 273, (5R*)—N^5-(4-Bromophenyl-methyl)-(6R*)—N^6-(3-(4-methylpiperazin-1-yl)-propyl)-(4S*,7R*)-[4,7-ethenylene-spiro[2.4]heptane]-5,6-dicarboxamide] | 213 nM | 432 nM |
| CN(C)CCNC(=O)[C@H]1[C@H](C(=O)NCc2ccc(Br)cc2)[C@@H]2C=C[C@H]1C21CC1 (racemic) [Example 274, (5R*)—N^5-(4-Bromophenyl-methyl)-(6R*)—N^6-(2-dimethylamino-ethyl)-(4S*,7R*)-[4,7-ethenylene-spiro[2.4]heptane]-5,6-dicarboxamide] | 290 nM | 1170 nM |

More lines, in order of falling EC50 [1], values ahead:

| EC50 [1] | EC50 [2] | Compound |
| --- | --- | --- |
| 6720 nM | 348 nM | Cc1csc(NC(=O)[C@H]2[C@H](C(=O)NCCCCN3CCCC3)[C@H]3C=C[C@@H]2C32CC2)n1 (racemic) [Example 256, (5R*)—N^5-(4-Methyl-thiazol-2-yl)-(6R*)—N^6-(4-pyrrolidin-1-yl-butyl)-(4S*,7R*)-[4,7-ethenylene-spiro[2.4]heptane]-5,6-dicarboxamide] |
| 477 nM | 22900 nM | CC(=O)c1csc(CNC(=O)[C@H]2[C@H](C(=O)NCCCN3CCN(C)CC3)[C@H]3C=C[C@@H]2C32CC2)n1 (racemic) [Example 268, (5R*)—N^5-(4-Acetyl-thiazol-2-yl-methyl)-(6R*)—N^6-(3-(4-methylpiperazin-1-yl)-propyl)-(4S*,7R*)-[4,7-ethenylene-spiro[2.4]heptane]-5,6-dicarboxamide] |
| 354 nM | > 25000 nM | O=C(NCCF)[C@H]1[C@H](C(=O)Nc2ncc(Br)s2)[C@@H]2C=C[C@H]1C21CC1 (racemic) [Example 259, (5R*)—N^5-(5-Bromo-thiazol-2-yl)-(6R*)—N^6-(2-fluoro-ethyl)-(4S*,7R*)-[4,7-ethenylene-spiro[2.4]heptane]-5,6-dicarboxamide] |
| 297 nM | > 25000 nM | CC(=O)c1csc(CNC(=O)[C@H]2[C@H](C(=O)NCCC(N)=O)[C@H]3C=C[C@@H]2C32CC2)n1 (racemic) [Example 261, (5R*)—N^5-(4-Acetyl-thiazol-2-yl-methyl)-(6R*)—N^6-(3-amino-3-oxopropyl)-(4S*,7R*)-[4,7-ethenylene-spiro[2.4]heptane]-5,6-dicarboxamide] |
| 97 nM | 106 nM | CCN(CC)CCCCNC(=O)[C@H]1[C@H](C(=O)NCc2nc(C(C)=O)cs2)[C@@H]2C=C[C@H]1C21CC1 (racemic) [Example 262, (5R*)—N^5-(4-Acetyl-thiazol-2-yl-methyl)-(6R*)—N^6-(4-diethylamino-butyl)-(4S*,7R*)-[4,7-ethenylene-spiro[2.4]heptane]-5,6-dicarboxamide] |
| 82 nM | 210 nM | O=C(NCCCCN1CCCC1)[C@H]1[C@H](C(=O)Nc2ccc(C(F)(F)F)cn2)[C@@H]2C=C[C@H]1C21CC1 (racemic) [Example 252, (5R*)—N^5-(5-Trifluoromethyl-pyridin-2-yl)-(6R*)—N^6-(4-pyrrolidin-1-yl-butyl)-(4S*,7R*)-[4,7-ethenylene-spiro[2.4]heptane]-5,6-dicarboxamide] |
| 7.9 nM | 558 nM | O=C(NCCCCN1CCCC1)[C@H]1[C@H](C(=O)Nc2cnc(Br)cn2)[C@@H]2C=C[C@H]1C21CC1 (racemic) [Example 251, (5R*)—N^5-(2-Bromo-pyrazin-5-yl)-(6R*)—N^6-(4-pyrrolidin-1-yl-butyl)-(4S*,7R*)-[4,7-ethenylene-spiro[2.4]heptane]-5,6-dicarboxamide] |
